Test results: patent publication US9290688B2, “Alkaline microbial enhanced oil recovery” (GEO FOSSIL FUELS, LLC, priority 2011, dated 2016)

Tested on: Rhodococcus rhodochrous ATCC #53968
Test: End of digestion: oil and aqueous volumes, acid number by alcoholic alkaline extraction and back titration
Assay type: cell-based
Conditions: one ml of oil, alcoholic alkaline extraction, back titration; acrylic acid value per gram of oil emulsion
Experimental: An oil degrading microorganism was used to evaluate the use of chemical inhibitors to slow the utilization of hydrocarbons in petroleum. In a non-limiting example, three different chemical compounds that have been reported to inhibit beta-oxidation were tested in oil and culture medium on a petroleum sample with a strain of Rhodococcus rhodochrous ATCC #53968 in m9 minimal medium. To test the ability of each chemical inhibitor to slow the consumption of fatty acids a culture of bacteria was grown on a crude oil sample for a period of three days with crude petroleum oil as the only carbon source. Four separate flasks were set up, each with an oil to aqueous media ratio of 1 to 5 (10 ml of crude oil to 50 ml of culture medium). Each of the three chemical inhibitors was added to a separate flask and a fourth flask was allowed to digest without the addition of a chemical inhibitor as a control. The flasks were shaken at a room temperature of about 25° C. under aerobic conditions. The progress of the microbial digestion was monitored by the optical density at 600 nm and by visual inspection of the brown oil color in the aqueous phase. Three days after the addition of inhibitors, or a total of six days of incubation with oil, a small sample of oil (0.31 g) was removed. A second sample of the same size was remover after another 6 days. The organic acids were extracted from each oil sample with 1% NaOH in 70% ethanol. […]
At the end of the experiment the oil and water were separated and the volume determined. […] This would have under reported the amount of methyl esters determined by GC analysis. The amount of aqueous phase was determined to be 22.5 ml for the acrylic acid sample and 46 ml, 48 ml and 47.5 ml for the others. […] The calculated acid number for the uninhibited digestion was 5 mg of KOH per gram. The other two inhibited digestions were analyzed to be 4.5 mg for the 2-bromooctanoic acid and 6.5 for the 2-bromohexadecanoic acid inhibited digestion. The undigested oil was determined to have an acid number of 6.5 mg of KOH by analysis of a one gram sample and a 10 gram sample. […]

Structure (SMILES)	final analysis acid number [mg KOH per gram]
C=CC(=O)O [AA, acrylic acid]	10
CCCCCCC(Br)C(=O)O (centres unmarked) [Br C8, 2-bromooctanoic acid]	4.5
